Values of other authors as cited in patent publication US8524751B2, “4-oxadiazol-2-YL-indazoles as inhibitors of P13 kinases” (priority 2009, dated 2013).
Like-named read-outs stand apart in the source and are kept apart here.

How the values were obtained:
Class I PI3-kinases = conditions: each of the Class I PI3-kinases

SMILES	IC50 (Class I PI3-kinases; read-out: IC50 values against each of the various Class I PI3-kinases) [µM]	IC50 (Class I PI3-kinases; Fruman et al. 1998, read-out: IC50 values against each of these PI3-kinases) [µM]	IC50 (CK2 protein kinase) [µM]
COC[C@H]1OC(=O)c2coc3c2[C@@]1(C)C1=C(C3=O)[C@@H]2CCC(=O)[C@@]2(C)C[C@H]1OC(C)=O [wortmannin]	0.001 to 0.01	–	–
O=c1cc(N2CCOCC2)oc2c(-c3ccccc3)cccc12 [LY294002]	–	15 to 20	5 to 10
